Values of other authors in patent US20110052727A1, “Anti Influenza Nutritional Supplements” (priority 2009, published 2011).

Test system: lung-adapted PR-8 virus
Details: mouse, in vivo

O=C/C=C/c1ccccc1 [CA, trans-cinnamaldehyde]
virus yield reduction in bronchoalveolar lavage fluid: 1 log
